Experimental findings from patent US11078207B2, “Substituted pyrrolo[2,3-d]pyrimidines as HER2 inhibitors” (TAIHO PHARMACEUTICAL CO., LTD., priority 2019, dated 2021) are described below.

The target in series [1] is HER2 exon 20 insertion mutant (HER2ex20insYVMA, A775_G776insYVMA) (Homo sapiens, UniProt P04626, DUP772-775). Description: Inhibitory action (in vitro) against HER2 exon 20 insertion mutant phosphorylation activity. The format is biochemical. The conditions noted are these: 30 min pre-incubation, ATP 200 μM, 25° C. 220 minutes. An excerpt:
In order to determine conditions for a method of measuring the in vitro inhibitory activity of a compound against HER2 exon 20 insertion mutant phosphorylation activity, as in the case of HER2, ProfilerPro Peptide 22 was used as a substrate. A purified recombinant human HER2 exon 20 insertion mutant (A775_G776insYVMA) protein is shown in SEQ ID NO: 7, and was purchased from SignalChem. Upon the measurement of the inhibitory activity of the compound, first, the compound of the present invention was diluted stepwise with dimethyl sulfoxide (DMSO). Subsequently, the HER2 exon 20 insertion mutant protein and the compound of the present invention in DMSO solution (final concentration of DMSO: 5%) were added into a buffer for the kinase reaction (13.5 mM Tris (pH 7.5), 2 mM dithiothreitol, and 0.009% Tween 20), and the obtained mixture was then pre-incubated at 25° C. for 30 minutes. Thereafter, the substrate peptide (final concentration: 1 μM), manganese chloride (final concentration: 25 mM), magnesium chloride (final concentration: 20 mM), and ATP (final concentration: 200 μM) were added into the reaction mixture, and the thus obtained mixture was then incubated at 25° C. for 220 minutes, so that the kinase reaction was carried out. To the reaction solution, EDTA was added to a final concentration of 30 mM, so as to terminate the reaction. Finally, using LabChip (registered trademark) EZ Reader II (PerkinElmer), an unphosphorylated substrate peptide (S) and a phosphorylated peptide (P) were separated and detected according to microchannel capillary electrophoresis.

The test system of series [2] is NCI-N87-Luc. Put plainly: Antitumor effect (in vivo) on direct brain transplantation models of NCI-N87-Luc. More on the design: species or system nude mouse (BALB/cAJcl-nu/nu). The conditions noted are these: Days 1-21. The source says:
In order to confirm the antitumor effects of a test compound on direct brain transplantation models, NCI-N87-Luc, which was obtained by introducing a luciferase gene into NCI-N87 that was a human stomach cancer tumor cell line purchased from American Type Culture Collection, was used.
The NCI-N87-Luc cells were re-suspended in PBS in a concentration of 6.25×10^7 cells/mL.
Using a mouse ear bar, a nude mouse with 6 to 7 weeks old (BALB/cAJcl-nu/nu, CLEA Japan, Inc.) was fixed in a brain stereotaxic apparatus, and the skin on the upper brain portion was disinfected with alcohol cotton and was then excised with a surgical knife.
A microdrill was used to drill a hole in the skull, and then, using a needle, a manipulator, and a syringe pump, 4 μL of the cell suspension was transplanted into the brain at a rate of 0.8 μL/min.
As a reference of the amount of brain tumor, approximately 3 weeks after the transplantation, Total Flux (Photon/sec) was measured in all of the survival cases, using IVIS (PerkinElmer, Inc., model: Lumina II). Based on the obtained results, 6 animals were assigned to each group, using the grouping program of MiSTAT (Ver. 2.00).
(§1) The test compound was orally administered to the mice once a day, every day, for 21 days from the following day of the grouping (Days 1-21).
(§2) For judgment of the presence or absence of effects, the value (Log 10) obtained by logarithmic transformation of the total flux on the judgment date was used. The test compound was administered to the mice at a dose of 25 mg/kg/day in Example 2 and Example 11, whereas it was administered at a dose of 50 mg/kg/day in Example 12.
A graph was prepared with the value obtained by logarithmic transformation (Log 10) of the average total flux of each group as a vertical axis, and with the number of days (Day) after the transplantation as a horizontal axis. The transition of the total flux over time in the drug administration period was observed. […]
(§3) The value obtained by logarithmic transformation (Log 10) of the total flux on Day 22 in each group was analyzed by a Dunnett test or a Student-t test.

A short description of series [3]: Body weight change in NCI-N87-Luc direct brain transplantation models. The format is in vivo, nude mouse (BALB/cAJcl-nu/nu). The conditions noted are these: oral 25 mg/kg/day, Days 1-21, nude mice. Here is the method: as §1, §2, §3

Where only a bound is given, the exact number is not on record here.

Chain of HER2 exon 20 insertion mutant (HER2ex20insYVMA, A775_G776insYVMA) (P04626 with tags, fused parts or gaps DUP772-775): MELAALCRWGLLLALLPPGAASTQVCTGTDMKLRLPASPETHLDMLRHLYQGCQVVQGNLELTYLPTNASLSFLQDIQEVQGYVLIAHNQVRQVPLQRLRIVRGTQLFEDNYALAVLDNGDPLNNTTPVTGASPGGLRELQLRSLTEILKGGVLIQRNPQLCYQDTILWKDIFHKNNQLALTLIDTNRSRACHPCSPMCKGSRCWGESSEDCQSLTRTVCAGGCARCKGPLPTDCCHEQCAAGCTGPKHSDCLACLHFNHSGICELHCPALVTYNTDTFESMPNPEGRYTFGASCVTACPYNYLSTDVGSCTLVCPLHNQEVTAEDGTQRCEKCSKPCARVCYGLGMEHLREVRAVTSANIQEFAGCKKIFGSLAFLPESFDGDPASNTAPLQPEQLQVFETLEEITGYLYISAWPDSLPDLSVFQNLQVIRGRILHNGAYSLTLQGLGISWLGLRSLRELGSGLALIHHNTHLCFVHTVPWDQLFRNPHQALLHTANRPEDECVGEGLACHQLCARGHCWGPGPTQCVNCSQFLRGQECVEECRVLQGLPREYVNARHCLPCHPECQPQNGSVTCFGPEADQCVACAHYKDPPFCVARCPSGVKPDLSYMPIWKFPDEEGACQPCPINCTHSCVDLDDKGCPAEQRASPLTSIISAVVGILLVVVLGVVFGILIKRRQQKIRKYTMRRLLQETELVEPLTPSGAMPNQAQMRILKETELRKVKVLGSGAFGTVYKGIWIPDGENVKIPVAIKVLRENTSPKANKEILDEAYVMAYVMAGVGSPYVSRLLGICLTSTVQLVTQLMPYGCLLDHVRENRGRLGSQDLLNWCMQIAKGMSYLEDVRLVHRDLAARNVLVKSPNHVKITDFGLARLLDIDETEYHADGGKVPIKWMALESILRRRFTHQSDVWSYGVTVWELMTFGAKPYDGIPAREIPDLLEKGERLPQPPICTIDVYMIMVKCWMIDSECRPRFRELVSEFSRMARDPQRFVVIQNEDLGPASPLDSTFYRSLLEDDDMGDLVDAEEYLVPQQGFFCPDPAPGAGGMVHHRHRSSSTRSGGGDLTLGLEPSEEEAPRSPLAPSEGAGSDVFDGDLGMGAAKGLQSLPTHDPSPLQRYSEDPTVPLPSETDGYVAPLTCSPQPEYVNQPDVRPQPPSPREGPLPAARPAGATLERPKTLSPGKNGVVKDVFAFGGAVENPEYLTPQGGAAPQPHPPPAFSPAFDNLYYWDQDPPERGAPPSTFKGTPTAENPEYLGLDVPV

Consider `C=CC(=O)N1C[C@H](n2c(C#CC)c(C(=O)N[C@H](CC)c3ccccc3)c3c(N)ncnc32)C[C@@H]1C` [Example 4, 7-((3R,5S)-1-acryloyl-5-methylpyrrolidin-3-yl)-4-amino-N—((R)-1-phenylpropyl)-6-(prop-1-yn-1-yl)-7H-pyrrolo[2,3-d]pyrimidine-5-carboxamide], for which, in series [1], half-maximal inhibition (IC50) was put at 370 pM.

As to `C=CC(=O)N1C[C@H](n2c(C#CC(C)(C)C)c(C(=O)N[C@H](C)c3ccccc3)c3c(N)ncnc32)C[C@@H]1C` [Example 12, 7-((3R,5S)-1-acryloyl-5-methylpyrrolidin-3-yl)-4-amino-6-(3,3-dimethylbut-1-yn-1-yl)-N—((R)-1-phenylethyl)-7H-pyrrolo[2,3-d]pyrimidine-5-carboxamide], the IC50 in series [1] amounted to 390 pM. Also, in series [2] (oral 50 mg/kg/day once a day), the “Log 10 of total flux on Day 22 versus control group” value is listed as “statistically significantly lower”.

In turn, `C=CC(=O)N1C[C@H](n2c(C#CC(C)(C)OC)c(C(=O)N[C@H](C)c3ccccc3)c3c(N)ncnc32)C[C@@H]1C` [Example 13, 7-((3R,5S)-1-acryloyl-5-methylpyrrolidin-3-yl)-4-amino-6-(3-methoxy-3-methylbut-1-yn-1-yl)-N—((R)-1-phenylethyl)-7H-pyrrolo[2,3-d]pyrimidine-5-carboxamide] gave an IC50 in series [1] of 440 pM.

For `C=CC(=O)N1C[C@H](n2c(C#CCC)c(C(=O)N[C@H](C)c3ccccc3)c3c(N)ncnc32)C[C@@H]1C` [Example 14, 7-((3R,5S)-1-acryloyl-5-methylpyrrolidin-3-yl)-4-amino-6-(but-1-yn-1-yl)-N—((R)-1-phenylethyl)-7H-pyrrolo[2,3-d]pyrimidine-5-carboxamide], the IC50 in series [1] is less than 300 pM.

Compound `C=CC(=O)N1C[C@H](n2c(C#CC3CC3)c(C(=O)N[C@H](C)c3ccccc3)c3c(N)ncnc32)C[C@@H]1C` [Example 11, 7-((3R,5S)-1-acryloyl-5-methylpyrrolidin-3-yl)-4-amino-6-(cyclopropylethynyl)-N—((R)-1-phenylethyl)-7H-pyrrolo[2,3-d]pyrimidine-5-carboxamide] came in with an IC50 in series [1] of less than 300 pM. Besides, the “Log 10 of total flux on Day 22 versus control group” value in series [2] (oral 25 mg/kg/day once a day) is recorded as “statistically significantly lower”. The “body weight reduction of −20% or more” value in series [3] is recorded as “not observed”.

`C=CC(=O)N1C[C@H](n2c(C#CC)c(C(=O)N[C@H](C)c3ccccc3)c3c(N)ncnc32)C[C@@H]1C` [Example 2, 7-((3R,5S)-1-acryloyl-5-methylpyrrolidin-3-yl)-4-amino-N—((R)-1-phenylethyl)-6-(prop-1-yn-1-yl)-7H-pyrrolo[2,3-d]pyrimidine-5-carboxamide]: in series [1], the IC50 is less than 300 pM. The “Log 10 of total flux on Day 22 versus control group” value in series [2] (oral 25 mg/kg/day once a day) was “statistically significantly lower”. In series [3], the “body weight reduction of −20% or more” value was “not observed”.

The compound `C=CC(=O)N1C[C@H](n2c(C#CC3CC3)c(C(=O)NC(C)(C)c3ccccc3)c3c(N)ncnc32)C[C@@H]1C` [Example 9, 7-((3R,5S)-1-acryloyl-5-methylpyrrolidin-3-yl)-4-amino-6-(cyclopropylethynyl)-N-(2-phenylpropan-2-yl)-7H-pyrrolo[2,3-d]pyrimidine-5-carboxamide] showed an IC50 in series [1] of 320 pM.

Compound `C=CC(=O)N1C[C@H](n2c(C#CC)c(C(=O)N[C@@H](c3ccccc3)C(F)(F)F)c3c(N)ncnc32)C[C@@H]1C` [Example 8, 7-((3R,5S)-1-acryloyl-5-methylpyrrolidin-3-yl)-4-amino-6-(prop-1-yn-1-yl)-N—((S)-2,2,2-trifluoro-1-phenylethyl)-7H-pyrrolo[2,3-d]pyrimidine-5-carboxamide] had an IC50 in series [1] of less than 300 pM.

Take `C=CC(=O)N1C[C@H](n2c(C#CC3CC3)c(C(=O)N[C@H](C)c3ccccc3)c3c(N)ncnc32)C[C@@H]1COC` [Example 18, 7-((3R,5R)-1-acryloyl-5-(methoxymethyl)pyrrolidin-3-yl)-4-amino-6-(cyclopropylethynyl)-N—((R)-1-phenylethyl)-7H-pyrrolo[2,3-d]pyrimidine-5-carboxamide]: in series [1], the IC50 was less than 300 pM.

In turn, `C=CC(=O)N1C[C@H](n2c(C#CC)c(C(=O)N[C@H](C)c3cc(F)cc(F)c3)c3c(N)ncnc32)C[C@@H]1C` [Example 1, 7-(R)-((3R,5S)-1-acryloyl-5-methylpyrrolidin-3-yl)-4-amino-N—((R)-1-(3,5-difluorophenyl)ethyl)-6-(prop-1-yn-1-yl)-7H-pyrrolo[2,3-d]pyrimidine-5-carboxamide] displayed an IC50 in series [1] of 340 pM. That is a sub-nanomolar value.

In the case of `C=CC(=O)N1C[C@H](n2c(C#CC)c(C(=O)N[C@H](C)c3ccccc3)c3c(N)ncnc32)C[C@@H]1CC` [Example 16, 7-((3R,5S)-1-acryloyl-5-ethylpyrrolidin-3-yl)-4-amino-N—((R)-1-phenylethyl)-6-(prop-1-yn-1-yl)-7H-pyrrolo[2,3-d]pyrimidine-5-carboxamide], half-maximal inhibition in series [1] (IC50) required 440 pM.

`C=CC(=O)N1C[C@H](n2c(C#CC)c(C(=O)NC(C)(C)c3ccccc3)c3c(N)ncnc32)C[C@@H]1C` [Example 3, 7-((3R,5S)-1-acryloyl-5-methylpyrrolidin-3-yl)-4-amino-N-(2-phenylpropan-2-yl)-6-(prop-1-yn-1-yl)-7H-pyrrolo[2,3-d]pyrimidine-5-carboxamide] returned an IC50 in series [1] of less than 300 pM.

Consider `C=CC(=O)N1C[C@H](n2c(C#CC3CC3)c(C(=O)N[C@H](C)c3cccc(F)c3F)c3c(N)ncnc32)C[C@@H]1C` [Example 10, 7-((3R,5S)-1-acryloyl-5-methylpyrrolidin-3-yl)-4-amino-6-(cyclopropylethynyl)-N—((R)-1-(2,3-difluorophenyl)ethyl)-7H-pyrrolo[2,3-d]pyrimidine-5-carboxamide], for which the IC50 in series [1] was less than 300 pM.

On to `C=CC(=O)N1C[C@H](n2c(C#CC)c(C(=O)N[C@H](C)c3cccc(Cl)c3)c3c(N)ncnc32)C[C@@H]1C` [Example 6, 7-((3R,5S)-1-acryloyl-5-methylpyrrolidin-3-yl)-4-amino-N—((R)-1-(3-chlorophenyl)ethyl)-6-(prop-1-yn-1-yl)-7H-pyrrolo[2,3-d]pyrimidine-5-carboxamide], for which the IC50 in series [1] is less than 300 pM.

On to `C=CC(=O)N1C[C@H](n2c(C#CC3CC3)c(C(=O)N[C@H](C)c3ccccc3)c3c(N)ncnc32)C[C@@H]1CC` [Example 17, 7-((3R,5S)-1-acryloyl-5-ethylpyrrolidin-3-yl)-4-amino-6-(cyclopropylethynyl)-N—((R)-1-phenylethyl)-7H-pyrrolo[2,3-d]pyrimidine-5-carboxamide], for which the IC50 in series [1] came out at 540 pM.

As for `C=CC(=O)N1C[C@H](n2c(C#CC)c(C(=O)NC(C)(C)c3ccccc3F)c3c(N)ncnc32)C[C@@H]1C` [Example 5, 7-((3R,5S)-1-acryloyl-5-methylpyrrolidin-3-yl)-4-amino-N-(2-(2-fluorophenyl)propan-2-yl)-6-(prop-1-yn-1-yl)-7H-pyrrolo[2,3-d]pyrimidine-5-carboxamide], it took 380 pM to reach half-maximal inhibition in series [1] (IC50). The IC50 values of the last two compounds are within 1.5-fold of each other.

Broadly, the IC50 is the concentration that inhibits the measured activity by half.
